# In patent publication US11160788B2, “Caspase-1 inhibition and uses thereof for prevention and treatment of neurological conditions” (priority 2016, dated 2021):
# “Also recorded” adds a separate entry of the source.
# Experiments:
# J20 mice [1] = test: Barnes maze, preventive treatment of pre-symptomatic J20 mice; assay type: in vivo, mouse
# From the text: FIG. 23: Barnes maze to assess spatial memory in J20 mice. Barnes maze tested at washout at (a-c) 12 week (6 months of age) and (d-f) 20 week (8 months of age). (a,d) Learning to find the escape hatch over 4 days in seconds. (b,e) Primary latency to reach the escape hatch and primary errors to find the hatch. In (b) One-way ANOVA (F(2,29)=5.948, p=0.0068), in (e) One-way ANOVA (F(2,22)=7.2545, p=0.0038) followed by Dunnett's pot-hoc *p<0.05, ** p<0.01. (c,f) Probe test: number of pokes for each of the 20 holes of the Barnes maze when hatch hole is blocked. T indicates target hole where hatch was accessible during training.
# We directly tested whether pre-symptomatic inhibition of inflammation in a mouse genetic model of Alzheimer disease can stem the progression of memory and behavioral deficits, and Alzheimer disease-like pathology. The J20 amyloid precursor protein Swedish/Indiana mutant mouse was treated at 2 months of age for a one month period with 50 mg/Kg Caspase-1 inhibitor VX-765 (FIG. 22a).
# human Casp2 to 10 = test: Selectivity against human Casp2 to 10; assay type: biochemical; settings: recombinant caspases
# Method: FIG. 14: Selectivity and blood brain permeability of VX-765 and VRT-043198. (a-b) IC50 of VX-765 (a) and VRT-043198 (b) against human Casp1-10. (c-d) IC50 of VX-765 (c) and VRT-043198 (d) against mouse Casp1 and Casp11. (e) Blood brain barrier permeability and presence of VX-765 and VRT-043198 in 3 wild type and 4 J20 mice brain cortex and hippocampus and in plasma. Ratios of brain levels to plasma levels are calculated.
# J20 mice [2] = test: Aβ immunostaining, thioflavin S and ELISA, treated symptomatic J20 mice brains; assay type: in vivo, mouse
# From the text: FIG. 11: VX-765 prevents the progression of Aβ in J20 mice. (a) Aβ immunohistographs of the stratum lacunosum molecular layer of the hippocampus and S1 cortex of pre-treated 5-month old J20 (baseline) and 8-month old vehicle- or VX-765-treated WT or J20 mice with anti-F2576 antiserum (Scale bar=50 μm). (b) Quantitative analysis comparing Aβ immunostaining density between J20+Vehicle (n=5) and J20+VX-765 (n=4) mice in the hippocampus from the pyramidal cell layer to the stratum lacunosum molecular layer (p=0.0029) and cortex (p=0.0314, unpaired t test). (c) Quantitative analysis comparing RIPA-soluble Aβ42 over total Aβ (Aβ38+Aβ40+Aβ42) levels in pre-treated 5-month old J20, 8-month old vehicle- or VX-765 treated J20 mice hippocampus (F(2,9)=6.614, p=0.0171, ANOVA, Tukey's post-hoc, * p<0.05). No ELISA signal was obtained from WT mice brains. (d) RIPA-soluble total Aβ measured by ELISA in pg/mg brain tissue. (e,f) Formic acid soluble Aβ42 over total Aβ (Aβ38+Aβ40+Aβ42) (e) and total Aβ (f) levels measured by ELISA in pg/mg brain tissue. Student t-test used to assess difference between J20+vehicle and J20+VX-765. (g,h,i) RIPA-soluble and (j,k,l) formic acid soluble Aβ38, Aβ40, and Aβ42 measured by ELISA in pg/mg brain tissue. (m) APP mRNA and protein levels and (n) insulin degrading enzyme (IDE) and neprilysin mRNA levels (o) in hippocampus and cortex.
# FIG. 19: Aβ stained with Thioflavin S or anti-Aβ1-40 F25276 antiserum in mice hippocampi or cortex. (a) Comparison of anti-Aβ immunostaining and thioflavin S stained Aβ in 8 month old vehicle-treated WT and J20 and in VX-765-treated J20 brain hippocampi and cortex (after T3). (b) Anti-Aβ F25276 immunopositive staining in 8 month old vehicle-treated J20, J20/Casp1−/−, and VX-765-treated (T3) mice hippocampi. (c) Higher magnification of Aβ and Iba1 immunopositive deposits in 8 month old vehicle-treated J20, J20/Casp1^−/−, and VX-765-treated (T3) mice hippocampi.
# To assess AD-like pathology, immunohistochemical analyses were performed to detect amyloid deposition (anti-AβF25276)^5,6, microglial (Iba1) activation^7, astrogliosis (GFAP), synaptophysin protein levels on coronal brain sections. Multiplex MSD ELISA was used to assess Aβ levels and 38,40, and 42 subtypes, and II-1β brain levels. RT-PCR was used to assess levels of human APP^Sw/Ind.
structure (smiles),measurement,setting,value
"CCO[C@@H]1OC(=O)C[C@@H]1NC(=O)[C@@H]1CCCN1C(=O)[C@@H](NC(=O)c1ccc(N)c(Cl)c1)C(C)(C)C [VX-765, (S)-1-((S)-2-{[1-(4-amino-3-chloro-phenyl)-methanoyl]-amino}-3,3-dimethyl-butanoyl)-pyrrolidine-2-carboxylic acid ((2R,3S)-2-ethoxy-5-oxo-tetrahydro-furan-3-yl)-amide]",Barnes maze ability to distinguish the target area,J20 mice [1]; 12-week washout,better ability to distinguish the target area
same,Barnes maze primary errors,J20 mice [1]; 12-week washout,corrected this deficit
same,Barnes maze primary latency,J20 mice [1]; 12-week washout (6 months of age),tended towards a better performance
same,Barnes maze identifying the target area in probe test,J20 mice [1]; 20-week washout,performed better than the Vehicle-treated J20 mice
same,Barnes maze learning phase,J20 mice [1]; 20-week washout,performed normally in the learning phase
same,Barnes maze primary latency and primary errors,J20 mice [1]; 20-week washout,did not reach statistical significance
same,inhibition of human Casp1 relative to human Casp2 to 10,human Casp2 to 10,potently and specifically inhibited
same,Aβ42 level in cortex,J20 mice [2]; ELISA of RIPA-extracted brain proteins,reduced
same,"formic acid soluble Aβ38, Aβ40, Aβ42",J20 mice [2]; hippocampal and cortical tissues,less abundant
same,RIPA soluble Aβ42,J20 mice [2]; hippocampus,reduced in the hippocampus
same,formic acid soluble Aβ42 over total Aβ38+40+42,J20 mice [2]; hippocampus,also reduced
same,RIPA-soluble Aβ42 over total Aβ38+40+42,J20 mice [2]; hippocampus and cortex,also reduced
same,formic acid soluble total Aβ,J20 mice [2]; hippocampus and cortex,strongly decreased
same,"deposited Aβ (thioflavin S, anti-Aβ immunostaining)","J20 mice [2]; hippocampus and cortex, 50 mg/kg, 12 injections, vs vehicle-injected J20, 50 mg/kg",only retained rare amyloid deposits; also recorded: substantially reduced
